These are literature values, as cited in patent US12533334B2, “Compositions and methods for modulating equine fatty acid profiles” (KENTUCKY EQUINE RESEARCH, INC., priority 2021, dated 2026).

Each structure is given as a SMILES string.

This series has as its system aspirin-induced gastric hemorrhage. The following applies: rats subjected to aspirin-induced gastric hemorrhage, dietary supplementation.

Consider `CCCCC/C=C\C/C=C\C/C=C\CCCCC(=O)O` [GLA, gamma linolenic acid], for which the Gastric hemorrhage result is reported as “no gastric hemorrhage”.

Consider `CCCCC/C=C\C/C=C\CCCCCCCC(=O)O` [LA, linoleic acid], for which the Gastric hemorrhage is listed as 3 of 8.
